Laboratory results reported in ChEMBL document CHEMBL1144564, “Discovery of Helicobacter pylori shikimate kinase inhibitors: bioassay and molecular modeling” (Bioorg Med Chem, 2007).

What was measured:
Shikimate kinase [1] = target: T1, Shikimate kinase (Helicobacter pylori (strain ATCC 700392 / 26695) (Campylobacterpylori), UniProt P56073); test: Inhibition of Helicobacter pylori SS1 recombinant shikimate kinase expressed in BL21 (DE3) cells in presence of varying MgATP levels by double coupled assay; format: cell-based
Shikimate kinase [2] = target: T1, Shikimate kinase; test: Inhibition of Helicobacter pylori SS1 recombinant shikimate kinase expressed in BL21 (DE3) cells in presence of varying shikimate levels by double coupled assay; format: cell-based
Shikimate kinase [3] = target: T1, Shikimate kinase; test: Binding affinity to Helicobacter pylori SS1 recombinant shikimate kinase expressed in BL21 (DE3) cells by SPR assay
Shikimate kinase [4] = target: T1, Shikimate kinase; test: Inhibition of Helicobacter pylori SS1 recombinant shikimate kinase expressed in BL21 (DE3) cells by double coupled assay; format: cell-based

T1 sequence (P56073 whole entry): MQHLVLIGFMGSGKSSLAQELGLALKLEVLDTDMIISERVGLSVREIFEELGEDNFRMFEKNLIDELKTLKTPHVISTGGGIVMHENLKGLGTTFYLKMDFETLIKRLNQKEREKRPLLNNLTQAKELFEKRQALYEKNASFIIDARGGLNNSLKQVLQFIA

Row | Ki (Shikimate kinase [1]) [µM] | Ki (Shikimate kinase [2]) [µM] | Kd (Shikimate kinase [3]) [µM] | IC50 (Shikimate kinase [4]) [µM] | Ki (Shikimate kinase [4]) [µM] | SMILES
1 | 7.18 | 10.7 | 4.39 | 5.5 | 9.48 | COc1cc(C=O)ccc1OCc1ccccc1COc1ccc(/C=C2/SC(=S)NC2=O)cc1OC
2 | 7.92 | – | 3.74 | 6.4 | 2.19 | O=C1NN(c2ccc(Cl)c(Cl)c2)C(=O)/C1=C\c1ccc(-c2ccc(Br)cc2C(=O)O)o1
